The record followed here is BindingDB's records for doi:10.1016/j.chembiol.2011.11.010 (Harvard Medical School, 2012).

Some results are limits rather than exact numbers.

Broadly, the IC50 is the concentration that gives 50% inhibition.

Assay in all cases: JNK Kinase Assay
Test [1] concerns the target Mitogen-activated protein kinase 10 (Homo sapiens, UniProt P53779).
Source text: (§1) The binding results were confirmed by measuring IC50 for the inhibition of JNK kinase activity by using Z'-LYTE assay format.
For test [2], the target named is Mitogen-activated protein kinase 9 (Homo sapiens, UniProt P45984).
Source text: as §1
Test [3] has as its target Mitogen-activated protein kinase 8 (Homo sapiens, UniProt P45983).
Source text: as §1

Mitogen-activated protein kinase 10, sequence (P53779 whole entry): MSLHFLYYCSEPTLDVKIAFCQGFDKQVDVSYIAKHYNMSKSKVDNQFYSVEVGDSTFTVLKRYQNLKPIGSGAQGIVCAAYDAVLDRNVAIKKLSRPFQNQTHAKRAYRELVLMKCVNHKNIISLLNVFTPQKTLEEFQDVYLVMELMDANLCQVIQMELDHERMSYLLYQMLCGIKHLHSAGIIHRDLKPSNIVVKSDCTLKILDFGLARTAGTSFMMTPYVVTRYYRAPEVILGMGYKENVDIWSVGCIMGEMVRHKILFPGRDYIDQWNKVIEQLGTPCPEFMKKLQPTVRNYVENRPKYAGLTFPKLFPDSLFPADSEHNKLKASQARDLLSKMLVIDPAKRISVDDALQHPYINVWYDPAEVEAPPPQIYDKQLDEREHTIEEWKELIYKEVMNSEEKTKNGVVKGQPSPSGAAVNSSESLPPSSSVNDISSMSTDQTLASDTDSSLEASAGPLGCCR
Mitogen-activated protein kinase 8, sequence (P45983 whole entry): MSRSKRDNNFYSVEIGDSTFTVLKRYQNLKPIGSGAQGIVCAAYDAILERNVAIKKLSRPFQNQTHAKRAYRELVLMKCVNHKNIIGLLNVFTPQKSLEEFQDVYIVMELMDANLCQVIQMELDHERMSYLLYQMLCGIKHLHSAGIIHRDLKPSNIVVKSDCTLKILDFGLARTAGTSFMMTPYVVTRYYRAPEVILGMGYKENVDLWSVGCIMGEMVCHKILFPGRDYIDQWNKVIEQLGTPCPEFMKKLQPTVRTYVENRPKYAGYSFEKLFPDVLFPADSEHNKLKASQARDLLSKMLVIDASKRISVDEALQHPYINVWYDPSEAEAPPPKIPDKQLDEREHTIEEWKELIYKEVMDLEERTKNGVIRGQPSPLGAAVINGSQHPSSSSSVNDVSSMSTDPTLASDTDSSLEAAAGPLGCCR
Mitogen-activated protein kinase 9, sequence (P45984 whole entry): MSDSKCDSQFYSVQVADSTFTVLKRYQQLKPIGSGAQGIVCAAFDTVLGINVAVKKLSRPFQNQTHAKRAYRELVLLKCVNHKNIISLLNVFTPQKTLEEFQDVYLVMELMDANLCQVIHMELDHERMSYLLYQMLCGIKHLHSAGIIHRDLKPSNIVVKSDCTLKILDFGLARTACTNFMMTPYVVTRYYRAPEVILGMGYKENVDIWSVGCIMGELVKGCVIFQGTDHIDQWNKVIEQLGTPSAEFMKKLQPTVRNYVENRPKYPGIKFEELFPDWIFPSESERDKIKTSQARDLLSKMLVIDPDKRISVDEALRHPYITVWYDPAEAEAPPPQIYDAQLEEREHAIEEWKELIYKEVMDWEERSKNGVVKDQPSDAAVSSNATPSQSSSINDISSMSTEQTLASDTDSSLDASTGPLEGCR

In test [1], `O=C1c2ccccc2-c2n[nH]c3cccc1c23` registered an IC50 of 190 nM.
Take `Cc1ccc(NC(=O)c2ccc(NC(=O)/C=C/CN(C)C)cc2)cc1Nc1nccc(-c2cccnc2)n1` [JNK-IN-1]: the half-inhibitory concentration (IC50) in test [2] stood at 4230 nM; in test [1], 7750 nM; in test [3], 7780 nM.
With `CN(C)C/C=C/C(=O)Nc1ccc(C(=O)Nc2cccc(Nc3nccc(-c4cccnc4)n3)c2)cc1` [JNK-IN-2], the IC50 amounted to 1140 nM in test [2] and 809 nM in test [3].
Regarding `CN(C)C/C=C/C(=O)Nc1ccc(C(=O)Nc2cccc(Oc3nccc(-c4cccnc4)n3)c2)cc1` [JNK-IN-3], the IC50 in test [2], in test [1] and in test [3] was more than 10000 nM in each case.
On to `CN(C)C/C=C/C(=O)NCc1ccc(C(=O)Nc2cccc(Nc3nccc(-c4cccnc4)n3)c2)cc1` [JNK-IN-4], for which the IC50 was 5460 nM in test [2], 7220 nM in test [1] and 2390 nM in test [3].
On to `CN(C)C/C=C/C(=O)Nc1cccc(C(=O)Nc2ccc(Nc3nccc(C(C#N)c4nc5ccccc5s4)n3)cc2)c1` (configuration not stated) [JNK-IN-12], for which the values for the IC50 in test [2], in test [1] and in test [3] were 11.3 nM, 11 nM and 13 nM, respectively.
On to `N#CC(c1ccnc(NCCc2cccnc2)n1)c1nc2ccccc2s1` (configuration not stated) [[3H-Benzothiazol-(2Z)-ylidene]-[2-(2-pyridin-3-yl-ethylamino)-pyrimidin-4-yl]-acetonitrile], for which the concentration for half-maximal inhibition (IC50) in test [2] was 220 nM; in test [3], 150 nM.
